Experimental data published in patent US10478437B2, “Combination therapy to enhance the anticancer efficacy of platinum drugs” (University of Pittsburgh-of the Commonwealth System of …, priority 2014, dated 2019).
Entries after “also recorded” stand apart in the source; their conditions may differ.

How the values were obtained:
Assay type in all cases: cell-based, human
[1] = test system: cisplatin-resistant ovarian cancer cell line A2780cis; experiment: CellTiter-Blue cell viability assay, compound alone or with cisplatin or carboplatin, 24 h; settings: for Combination Index: CompuSyn software
Outline: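 A2780cis cells received compound at 10, 20 or 50 μM, alone or with cisplatin or carboplatin, for 24 h before CellTiter-Blue viability read-out. Data are mean±SD, combinations vs compound alone compared by Student's t test (P<0.05), and combination index computed by the Chou method.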

[2] = test system: PEO4, SKOV3, H1299, MDA-MB-231, Ca133 cells; experiment: Western blot of PARP and Caspase-3 cleavage in other cisplatin-resistant cancer cells; settings: 20 h, FIG. 9, in words
Experimental: FIG. 9. The combination of cisplatin and compound 1-6 triggers extensive apoptosis in various types of cisplatin- and multidrug-resistant tumor cells. Cisplatin-resistant cancer cells PEO4 (ovarian), SKOV3 (ovarian), H1299 (lung), MDA-MB-231 (breast), Ca133 (head & neck) were treated with DMSO (untreated), cisplatin (20 μM) alone, compound 1-6 (20 μM) alone, or the combination for 20 h. Cleavage of PARP and Caspase-3 were determined by western blot.
(§1) Whole cell lysate was prepared by lysing cells in cell lysis buffer (Cell signaling technology) containing complete protease inhibitor (Roche). Cell lysates were then cleared at 15,000 rpm for 15 min at 4° C. The protein content was quantified using a Bio-Rad Protein Assay kit (Bio-Rad Laboratories, Hercules, Calif.). The equal amount of protein was separated on Tris-glycine gels (Invitrogen). The separated proteins were blotted onto a polyvinylidene difluoride membrane and blocked overnight at 4° C. in phosphate-buffered saline containing 0.1% Tween 20 and 10% nonfat dry milk (blocking buffer). Membranes were incubated with primary antibodies in blocking buffer overnight at 4° C. Primary antibodies used were: β-actin from Sigma; Bax, Bak, Caspase-9 and cleaved Caspase-3 from Cell Signaling Technology; phospho-Histone H2AX (Ser 139) and Noxa from Millipore. Membranes were then washed and incubated in peroxidase conjugated anti-rabbit IgG (Sigma) or anti-mouse IgG (Sigma) secondary antibody for 1 h at room temperature. Membranes were developed using SuperSignal West Femto Maximum Sensitivity Substrate (Thermo Fisher Scientific).
To evaluate whether the synergistic effects of the disclosed compounds and cisplatin could be extended to other types of cancer cells, breast cancer cells (MDA-MB-231), non-small cell lung carcinoma cells (H-1299), ovarian cancer cells (PEO4 and SKOV3) and head and neck cancer cells (Ca133) were treated with various combinations of cisplatin and compound 1-6 and analyzed for Caspase-3.

[3] = test system: cisplatin-resistant ovarian cancer cell line A2780cis; experiment: Caspase-3/7 activity assay (apoptotic cell death), compound alone or with cisplatin; settings: for caspase-3/7 activity (Lum) with compound and cisplatin (20 μM) / caspase-3/7 activity (Lum) with compound alone: Table 6; for caspase-3/7 activity (Lum) with compound alone: untreated cells 9 ± 1
Outline: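 Caspase-3/7 activity in A2780cis cells treated with compound alone or with cisplatin, luminescent Caspase-Glo 3/7 read-out. Apoptotic morphology is checked microscopically just before measurement.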

[4] = test system: A2780cis cells; experiment: Western blot of caspase/PARP cleavage, Noxa induction, RPA32 and H2AX phosphorylation; settings: compound 20 μM + cisplatin 20 μM
Experimental: as §1
A2780cis cells were treated with cisplatin alone, compounds alone or in combination with cisplatin at indicated concentrations for 20 h to analyze apoptotic cell death in response to treatment. […] Expression and cleavage of several major caspases (Caspase-8, Caspase-9 and Caspase-3), as well as poly(ADP-ribose) polymerase (PARP) and NOXA. A2780cis cells were treated with cisplatin (20 μM) alone, compounds (20 μM) alone or in combination with cisplatin for 20 h.
To determine the effects of the compounds on DNA damage and mitochondrial dysfunction, A2780cis cells were treated with cisplatin (20 μM) alone or the combination of cisplatin with 20 μM of compound 1-6. Replication protein A (RPA) is a single strand-specific DNA-binding protein, consisting of three subunits, RPA70, RPA32, and RPA14. RPA32 is phosphorylated in response to DNA replication stress. Western blot analysis was performed to evaluate the phosphorylation of RPA32 and histone H2AX, the induction of Noxa expression and cleavage of caspase-3. […] A2780cis cells were treated with cisplatin (50 μM) alone, 1-6 (50 μM) alone or the combination of cisplatin and compound 1-6 for 4 h. The oxygen consumption rate (OCR) was measured by a Seahorse extracellular flux analyzer.

[5] = compound 10 μM with cisplatin (20 μM)
[6] = compound 20 μM with cisplatin (20 μM)
[7] = compound 50 μM with cisplatin (20 μM)

CCOCCCn1c(=S)[nH]c2c(C)cccc2c1=O [Compound 1-6]
cell viability after combination with carboplatin compared to carboplatin alone ([1]; 24 h, FIG. 6, in words): cell viability was reduced
viability at 10 µM ([1]; Homo sapiens, A2780cis, compound 10 μM, 24 h, untreated cells = 100%, read-out: survival (%) of cells with compound alone): 98.9 ± 3.1%
viability at 20 µM ([1]; Homo sapiens, A2780cis, compound 20 μM, 24 h, untreated cells = 100%, read-out: survival (%) of cells with compound alone): 95.4 ± 4.2%
viability at 50 µM ([1]; Homo sapiens, A2780cis, compound 50 μM, 24 h, untreated cells = 100%, read-out: survival (%) of cells with compound alone): 93.7 ± 4.4%
Survival (%) of cells with compound and carboplatin (200 μM) ([1]; compound 10 μM + carboplatin 200 μM, 24 h): 64.5 ± 2.7%
survival (%) of cells with compound and cisplatin (20 μM) ([1]; compound 10 μM + cisplatin 20 μM, 24 h): 58.8 ± 1.5%
Grading (of combination index) [1, 5]: Synergism
Combination Index [1, 5]: 0.67
potency at enhancing the cytotoxicity of cisplatin compared to mdivi-1 ([1]; compound 10 μM with cisplatin, FIG. 4, in words): more potent than mdivi-1
Survival (%) of cells with compound and carboplatin (200 μM) ([1]; compound 20 μM + carboplatin 200 μM, 24 h): 48.0 ± 3.0%
survival (%) of cells with compound and cisplatin (20 μM) ([1]; compound 20 μM + cisplatin 20 μM, 24 h): 28.0 ± 1.6%
Grading (of combination index) [1, 6]: Strong
Combination Index [1, 6]: 0.24
Survival (%) of cells with compound and carboplatin (200 μM) ([1]; compound 50 μM + carboplatin 200 μM, 24 h): 2.5 ± 0.4%
survival (%) of cells with compound and cisplatin (20 μM) ([1]; compound 50 μM + cisplatin 20 μM, 24 h): 1.5 ± 0.6%
Grading (of combination index) [1, 7]: Very strong
Combination Index [1, 7]: 0.01
cell death after single compound exposure ([2]; 20 μM alone): minimal effect in inducing cell death
cleavage of Caspase 3 and PARP, combination with cisplatin ([2]; compound 20 μM + cisplatin 20 μM): cleavage of Caspase 3 and PARP was observed
activation of Caspase-3/7 in combination with cisplatin compared to mdivi-1 ([3]; FIG. 7A and Table 6, in words): more effective; also recorded: more potent than mdivi-1
caspase-3/7 activity (Lum), compound with cisplatin ([3]; Table 1, compound 20 μM with 20 μM cisplatin, 20 h): 145 ± 6 Lum
caspase-3/7 activity (Lum), compound alone ([3]; Table 1, compound 20 μM, 20 h, mean ± S.D. of triplicates): 12 ± 0 Lum
caspase-3/7 activity (Lum), compound alone ([3]; Table 2, compound 20 μM, 20 h): 12 ± 0 Lum
caspase-3/7 activity (Lum) with compound and cisplatin (20 μM) ([3]; compound 5 μM + cisplatin 20 μM, 20 h): 22 ± 1 Lum
caspase-3/7 activity (Lum) with compound alone ([3]; compound 5 μM, 20 h): 10 ± 1 Lum
caspase-3/7 activity (Lum) with compound and cisplatin (20 μM) ([3]; compound 10 μM + cisplatin 20 μM, 20 h): 67 ± 3 Lum
caspase-3/7 activity (Lum) with compound alone ([3]; compound 10 μM, 20 h): 10 ± 1 Lum
caspase-3/7 activity (Lum) with compound and cisplatin (20 μM) ([3]; compound 20 μM + cisplatin 20 μM, 20 h): 105 ± 7 Lum
caspase-3/7 activity (Lum) with compound alone ([3]; compound 20 μM, 20 h): 11 ± 2 Lum
activity in the screen (Caspase-3/7 activity and microscopic examination), active / inactive ([3]; alone or in the presence of cisplatin, in words): active
Caspase-3/7 activity upon combination with cisplatin compared to cisplatin alone or compound alone ([3]; in words): increase in Caspase-3/7 activity
cleavage of caspases and PARP, induction of Noxa in combination with cisplatin ([4]; 20 h, FIG. 7B, in words): cleavage of Caspase-8, 9, 3, PARP and the induction of Noxa
time of enhanced phosphorylation of RPA32 post treatment, combination with cisplatin ([4]; FIG. 8A): ≤ 4 h
